Usually CC50 stands for the concentration that lowers cell viability or growth by half. As usually defined, the solubility is how much of the substance goes into solution per volume. A lower solubility goes with a poorly soluble substance.

Values after ≈ are worked out from the molar mass of the structure shown.

Here are results for 11 compounds from ChEMBL document CHEMBL5131454, “Exploratory studies on soluble small molecule CD4 mimics as HIV entry inhibitors” (Bioorg Med Chem, 2022).

Data set [1] is described as follows: (§1) Cytotoxicity against human TZM-bl cells assessed as reduction in cell viability by CellTiter-Glo 2.0 assay. The settings on record: TZM-bl cells. The class given is toxicity, cell-based. (In general: ATP-based viability assays read luminescence as a measure of living cells.)
Data set [2] concerns TZM. The description is as §1. The class given is toxicity, cell-based. The settings on record: tzm.
For data set [3], the system named is TZM. In words: Cytotoxicity against human TZM-bl cells assessed as reduction in cell viability at <100 uM by CellTiter-Glo 2.0 assay. Type of data set: toxicity, cell-based.
Data set [4] is described as follows: Aqueous solubility of the compound in PBS at pH 7.4 at 25 degC. Type of data set: physicochemical.

As to `CC1(C)CC(NC(=O)C(=O)Nc2ccc(Cl)cc2)CC(C)(C)N1`, the CC50 in data set [1] worked out at 177 µM.

On to `CC1(C)CC(NC(=O)C(=O)Nc2ccc(F)nc2)CC(C)(C)N1`, for which, in data set [1], the CC50 is greater than 300 µM.

On to `N=C(N)NCCCCC(=O)NCCN1CCC(NC(=O)C(=O)Nc2ccc(Cl)cc2)CC12CCCCC2.O=C(O)C(F)(F)F.O=C(O)C(F)(F)F` (configuration not stated), for which, in the data set with TZM [2], the CC50 is 201 µM. Moreover, the Activity result in the data set on TZM [3] is “Non-Toxic”. In addition, the solubility in data set [4] was greater than 16.4 mM.

`N=C(N)NCCCCC(=O)NCCN1CCC(NC(=O)C(=O)Nc2ccc(Cl)cc2)CC12CCCCC2` (configuration not stated): the cytotoxic concentration (CC50) in the data set with TZM [2] was greater than 100 µM. For the same compound, the Activity result in the data set on TZM [3] was “Non-Toxic”. In data set [4], the solubility worked out at 0.47 mM (≈ 251 µg/mL).

On to `COCCOCCOCCOCCOCCOCCOCCOCCOCCOCCOCCOCCNC(=O)CCC(=O)N[C@@H](CCCNC(=N)N)C(=O)NCCN1CCC(NC(=O)C(=O)Nc2ccc(Cl)cc2)CC12CCCCC2.O=C(O)C(F)(F)F.O=C(O)C(F)(F)F` (some centres not stated), for which, in data set [1], the CC50 is greater than 300 µM. In addition, in the data set with TZM [3], the Activity entry is “Non-Toxic”. The compound further had a solubility in data set [4] greater than 13 mM.

`N=C(N)NCCCCC(=O)NCCN1CCC(NC(=O)C(=O)Nc2cncc(F)c2)CC12CCCCC2.O=C(O)C(F)(F)F.O=C(O)C(F)(F)F.O=C(O)C(F)(F)F` (configuration not stated): the CC50 in data set [1] was greater than 300 µM. Besides, the Activity entry in the data set with TZM [3] was “Non-Toxic”. The same compound registered a solubility in data set [4] greater than 50 mM.

For the compound `N=C(N)NCCCCC(=O)NCCN1CCC(NC(=O)C(=O)Nc2cncc(Cl)c2)CC12CCCCC2.O=C(O)C(F)(F)F.O=C(O)C(F)(F)F.O=C(O)C(F)(F)F` (configuration not stated), the CC50 in data set [1] was determined as 279 µM. The Activity result in the data set on TZM [3] was “Non-Toxic”. This compound also displayed a solubility in data set [4] greater than 50 mM.

`N=C(N)NCCCCC(=O)NCCN1CCC(NC(=O)C(=O)Nc2ccc(F)nc2)CC12CCCCC2.O=C(O)C(F)(F)F.O=C(O)C(F)(F)F.O=C(O)C(F)(F)F` (configuration not stated): the CC50 in data set [1] is greater than 100 µM. The Activity entry with TZM [3] is “Non-Toxic”.

In the case of `COCCOCCOCCOCCOCCOCCOCCOCCOCCOCCOCCOCCNC(=O)CCC(=O)N[C@@H](CCCNC(=N)N)C(=O)NCCN1CCC(NC(=O)C(=O)Nc2ccc(F)nc2)CC12CCCCC2.O=C(O)C(F)(F)F.O=C(O)C(F)(F)F.O=C(O)C(F)(F)F` (some centres not stated), the cytotoxic concentration (CC50) in data set [1] is greater than 100 µM. In the data set on TZM [3], the Activity result is listed as “Non-Toxic”.

`N=C(N)NCCCCC(=O)NCCN1CCC(NC(=O)CNc2ccc(Cl)cn2)CC1.O=C(O)C(F)(F)F.O=C(O)C(F)(F)F.O=C(O)C(F)(F)F`: the CC50 in data set [1] is greater than 300 µM. For the same compound, the Activity result in the data set with TZM [3] is on record as “Non-Toxic”. In data set [4], this compound displayed a solubility greater than 50 mM.

In the case of `N=C(N)NCCCCC(=O)NCCN1CCC(NC(=O)C(=O)Nc2ccc(Cl)cn2)CC1.O=C(O)C(F)(F)F.O=C(O)C(F)(F)F.O=C(O)C(F)(F)F`, the 50% cytotoxic concentration (CC50) in data set [1] is greater than 300 µM. Further, the Activity result with TZM [3] was “Non-Toxic”. This compound showed a solubility in data set [4] greater than 50 mM.
